Reference: US9181218B2, “Compounds for improved stem cell differentiation into hepatocytes” (Hoffmann-La Roche Inc., priority 2013, dated 2015)

Tested on: interferon-stimulated genes (ISGs)
Assay: Microarray analysis of iCell Hepatocytes treated with the compound of example 1
Assay type: cell-based, Human
Details: DAY 7
From the text: iCell Hepatocytes treated with the compound of example 1 results in the up and down-regulation of a host of genes; including a kinetic effect on interferon-stimulated gene (ISGs) expression. See FIGS. 15-I and 15-II, 16-I and 16-II and 18 and Table 1.

O=C(NCc1cccc(F)c1)c1cccc2nc(-c3c(NC[C@@H](O)c4ccccc4)cc[nH]c3=O)[nH]c12 [Example 1, 2-[4-((S)-2-hydroxy-2-phenyl-ethylamino)-2-oxo-1,2-dihydro-pyridin-3-yl]-3H-benzoimidazole-4-carboxylic acid 3-fluoro-benzylamide]
ARHGEF3 Raw Est Fold Change: −2.76
ASNS Raw Est Fold Change: 1.63
ATP1B3 Raw Est Fold Change: −1.72
ATP10D Raw Est Fold Change: −2.21
AXL Raw Est Fold Change: 5.52
B2M Raw Est Fold Change: −1.77
B4GALT5 Raw Est Fold Change: −2.50
BAG1 Raw Est Fold Change: 1.33
BCL3 Raw Est Fold Change: −3.15
BHMT Raw Est Fold Change: 100.46
BLVRA Raw Est Fold Change: −2.70
BRF2 Raw Est Fold Change: 1.46
C1R Raw Est Fold Change: −2.64
C1S Raw Est Fold Change: −2.00
C4BPA Raw Est Fold Change: −3.52
C4orf33 Raw Est Fold Change: 1.65
C6orf85 Raw Est Fold Change: 1.31
C10orf10 Raw Est Fold Change: −6.70
CAPN2 Raw Est Fold Change: −1.90
CASP1 Raw Est Fold Change: 1.40
CASP4 Raw Est Fold Change: −43.41
CASP5 Raw Est Fold Change: −11.12
CCL19 Raw Est Fold Change: 2.16
CCND3 Raw Est Fold Change: −4.18
CD3D Raw Est Fold Change: −3.72
CD9 Raw Est Fold Change: 4.66
CD38 Raw Est Fold Change: −60.43
CD47 Raw Est Fold Change: −2.51
CD163 Raw Est Fold Change: 4.54
CD164 Raw Est Fold Change: −1.47
CD300LF Raw Est Fold Change: −15.50
CEBPD Raw Est Fold Change: −6.95
CFB Raw Est Fold Change: −2.96
CHST12 Raw Est Fold Change: −1.59
CKB Raw Est Fold Change: 2.95
CLEC2D Raw Est Fold Change: 2.54
CLEC4E Raw Est Fold Change: 4.33
COL16A1 Raw Est Fold Change: 1.53
CPT1A Raw Est Fold Change: 1.49
CREB3L3 Raw Est Fold Change: −4.65
CREM Raw Est Fold Change: 1.71
CRP Raw Est Fold Change: −63.77
CRYM Raw Est Fold Change: 3.57
CSDA Raw Est Fold Change: −5.60
CTGF Raw Est Fold Change: −3.88
CX3CR1 Raw Est Fold Change: 9.27
CXCL11 Raw Est Fold Change: 3.15
CYP1B1 Raw Est Fold Change: −6.56
CYR61 Raw Est Fold Change: −7.93
DHFR Raw Est Fold Change: 2.31
DNAPTP6 Raw Est Fold Change: 2.61
EFNB2 Raw Est Fold Change: −7.87
EGR1 Raw Est Fold Change: −4.88
EHHADH Raw Est Fold Change: 6.99
EIF2AK2 Raw Est Fold Change: −1.14
EIF2S2 Raw Est Fold Change: 1.81
EMP1 Raw Est Fold Change: 2.60
EPAS1 Raw Est Fold Change: −1.83
EREG Raw Est Fold Change: −21.64
ETS2 Raw Est Fold Change: −2.17
ETV6 Raw Est Fold Change: −1.87
ETV7 Raw Est Fold Change: −3.42
EWSR1 Raw Est Fold Change: −2.03
F3 Raw Est Fold Change: 2.54
FAM70A Raw Est Fold Change: 4.10
FAM102A Raw Est Fold Change: −1.88
FBXO6 Raw Est Fold Change: 3.59
FCGR1A Raw Est Fold Change: 2.56
FER1L3 Raw Est Fold Change: −2.43
FGG Raw Est Fold Change: −1.22
FLT1 Raw Est Fold Change: −1.38
FNDC3B Raw Est Fold Change: −2.02
G6PC Raw Est Fold Change: 6.12
GALNT2 Raw Est Fold Change: −6.32
GBP2 Raw Est Fold Change: −4.50
GBP3 Raw Est Fold Change: 2.28
GCH1 Raw Est Fold Change: 1.83
GK Raw Est Fold Change: −2.38
GLB1 Raw Est Fold Change: −1.33
GLUL Raw Est Fold Change: 3.54
GNB1 Raw Est Fold Change: −1.39
GPR171 Raw Est Fold Change: 1.93
GRN Raw Est Fold Change: −1.37
HAO1 Raw Est Fold Change: 3.59
HBE1 Raw Est Fold Change: −2.67
HDAC2 Raw Est Fold Change: −1.34
HEG1 Raw Est Fold Change: −4.07
HERC6 Raw Est Fold Change: −1.49
HESX1 Raw Est Fold Change: 3.01
HIF1A Raw Est Fold Change: −4.78
HK2 Raw Est Fold Change: −3.18
HLA-DMA Raw Est Fold Change: −2.39
HLA-DOA Raw Est Fold Change: 3.70
HPSE Raw Est Fold Change: −2.92
ICAM1 Raw Est Fold Change: −9.02
ID1 Raw Est Fold Change: −5.53
IER3 Raw Est Fold Change: −9.69
IFI16 Raw Est Fold Change: −11.00
IFIH1 Raw Est Fold Change: 1.47
IFIT1 Raw Est Fold Change: 16.72
IFIT3 Raw Est Fold Change: 2.91
IFITM1 Raw Est Fold Change: −15.75
IFITM2 Raw Est Fold Change: −4.71
IFITM3 Raw Est Fold Change: −1.73
IFNGR1 Raw Est Fold Change: −3.76
IGHM Raw Est Fold Change: 3.80
IKZF2 Raw Est Fold Change: −2.69
IL1RN Raw Est Fold Change: −2.59
IL6ST Raw Est Fold Change: −1.83
IL8 Raw Est Fold Change: −9.22
IL17RB Raw Est Fold Change: 1.38
IL28RA Raw Est Fold Change: 1.55
IMPA2 Raw Est Fold Change: −1.62
INPP5B Raw Est Fold Change: 1.29
IQGAP1 Raw Est Fold Change: −2.60
IRF1 Raw Est Fold Change: 1.36
IRF7 Raw Est Fold Change: −3.42
IRF8 Raw Est Fold Change: −1.86
ISOC1 Raw Est Fold Change: 1.96
ITGA2 Raw Est Fold Change: −5.40
ITGA6 Raw Est Fold Change: 1.89
